Among the data in ChEMBL document CHEMBL3132761, “Construction of phenoxazine rings containing nitro and sulfonic acid groups leading to phenoxazine-3-sulfonamide derivatives: their evaluation as novel and potential insulin secretagogues” (Medchemcomm, 2014) are Activity and IC50 values, retold here.

Assay [1] deals with Rattus norvegicus. Kind of assay: Antidiabetic activity in streptozotocin-nicotinamide-induced diabetic model of Wistar albino rat assessed as reduction of blood glucose level at 10 mg/kg, po after 8 hrs relative to control. Format: functional.
The test system of assay [2] is Rattus norvegicus. Put plainly: Antidiabetic activity in streptozotocin-nicotinamide-induced diabetic model of Wistar albino rat assessed as reduction of blood glucose level at 10 mg/kg, po after 1 hr relative to control. The class given is functional.
The test system of assay [3] is Rattus norvegicus. Kind of assay: Hypoglycemic activity in over night fasted Wistar albino rat assessed as reduction of blood glucose level at 10 mg/kg, po administered 30 mins before glucose challenge measured after 60 mins by intraperitoneal glucose tolerance test (reference value: 106.07 +/- 13.98 mg/dl). Format: functional.
Assay [4] concerns Rattus norvegicus. Put plainly: Hypoglycemic activity in 18 hrs fasted Wistar albino rat assessed as reduction of blood glucose level at 10 mg/kg, po after 4 hrs (reference value: 97.13 +/- 2.89 mg/dl). The class given is functional.
Assay [5] concerns Rattus norvegicus. Put plainly: Hypoglycemic activity in 18 hrs fasted Wistar albino rat assessed as reduction of blood glucose level at 10 mg/kg, po after 6 hrs (reference value: 101.01 +/- 1.60 mg/dl). Format: functional.
The subject of assay [6] is Rattus norvegicus. Put plainly: Hypoglycemic activity in over night fasted Wistar albino rat assessed as reduction of blood glucose level at 10 mg/kg, po administered 30 mins before glucose challenge measured after 120 mins by intraperitoneal glucose tolerance test (reference value: 101.07 +/- 8.98 mg/dl). The class given is functional.
For assay [7], the system named is Rattus norvegicus. Put plainly: Hypoglycemic activity in over night fasted Wistar albino rat assessed as reduction of blood glucose level at 10 mg/kg, po administered 30 mins before glucose challenge measured after 90 mins by intraperitoneal glucose tolerance test (reference value: 94.44 +/- 6.99 mg/dl). Format: functional.
In assay [8] the test system is Rattus norvegicus. Kind of assay: Hypoglycemic activity in over night fasted Wistar albino rat assessed as reduction of blood glucose level at 10 mg/kg, po administered 30 mins before glucose challenge measured after 30 mins by intraperitoneal glucose tolerance test (reference value: 109.28 +/- 20.53 mg/dl). The class given is functional.
The subject of assay [9] is Rattus norvegicus. Put plainly: Hypoglycemic activity in 18 hrs fasted Wistar albino rat assessed as reduction of blood glucose level at 10 mg/kg, po after 2 hrs (reference value: 101.03 +/- 1.93 mg/dl). Format: functional.
Assay [10] deals with Rattus norvegicus. Put plainly: Antidiabetic activity in streptozotocin-nicotinamide-induced diabetic model of Wistar albino rat assessed as reduction of blood glucose level at 10 mg/kg, po after 4 hrs relative to control. Format: functional.
The test system of assay [11] is Rattus norvegicus. Put plainly: Antidiabetic activity in streptozotocin-nicotinamide-induced diabetic model of Wistar albino rat assessed as reduction of blood glucose level at 10 mg/kg, po after 6 hrs relative to control. The class given is functional.
In assay [12] the test system is Rattus norvegicus. Kind of assay: Antidiabetic activity in streptozotocin-nicotinamide-induced diabetic model of Wistar albino rat assessed as reduction of blood glucose level at 10 mg/kg, po after 2 hrs relative to control. The class given is functional.
The test system of assay [13] is Hepatocyte. Put plainly: Cytotoxicity against rat primary hepatocytes after 16 hrs. Format: cell-based.
Assay [14] has as its system Hepatocyte. Kind of assay: Cytotoxicity against rat primary hepatocytes after 6 hrs. Format: cell-based.

As to `O=[N+]([O-])c1cc(S(=O)(=O)Nc2ccc(Br)cc2)cc2c1Nc1ccccc1O2`, the Activity in the assay with Rattus norvegicus [1] is 172.2 mg/dL; with Rattus norvegicus [2] it was 165.8 mg/dL; in the assay with Rattus norvegicus [3] it was 111.4 mg/dL; in the assay with Rattus norvegicus [4] it was 85.42 mg/dL; in the assay on Rattus norvegicus [5], 89.58 mg/dL; in the assay on Rattus norvegicus [6], 119.64 mg/dL. Moreover, the Activity with Rattus norvegicus [7] was found to be 137.5 mg/dL; with Rattus norvegicus [8], 148.35 mg/dL; in the assay on Rattus norvegicus [9], 95.31 mg/dL; with Rattus norvegicus [10], 157.5 mg/dL; in the assay with Rattus norvegicus [11], 165.6 mg/dL; with Rattus norvegicus [12], 145.6 mg/dL.
Regarding `CCN(CC)S(=O)(=O)c1cc2c(c([N+](=O)[O-])c1)Nc1ccccc1O2`, the results for the Activity in the assay with Rattus norvegicus [4], in the assay with Rattus norvegicus [5] and with Rattus norvegicus [9] were 113.54 mg/dL, 118.75 mg/dL and 122.92 mg/dL, respectively.
For `O=[N+]([O-])c1cc(S(=O)(=O)Nc2ccccc2O)cc2c1Nc1ccccc1O2` the same measures were 85 mg/dL, 88.88 mg/dL and 71.38 mg/dL.
For `COc1ccc(CNS(=O)(=O)c2cc3c(c([N+](=O)[O-])c2)Nc2ccccc2O3)cc1` the same measures were 102.08 mg/dL, 85.93 mg/dL and 102.6 mg/dL.
For `O=[N+]([O-])c1cc(S(=O)(=O)Nc2cccc(F)c2)cc2c1Nc1ccccc1O2` the same measures were 87.88 mg/dL, 93.94 mg/dL and 95.45 mg/dL.
As to `O=[N+]([O-])c1cc(S(=O)(=O)NCc2cccs2)cc2c1Nc1ccccc1O2`, the Activity came out at 114.06 mg/dL in the assay on Rattus norvegicus [4], 84.37 mg/dL with Rattus norvegicus [5] and 86.45 mg/dL in the assay with Rattus norvegicus [9].
For the compound `O=[N+]([O-])c1cc(S(=O)(=O)NC2CCCCC2)cc2c1Nc1ccccc1O2`, the figures for the Activity in the assay on Rattus norvegicus [4], in the assay on Rattus norvegicus [5] and with Rattus norvegicus [9] were 85.63 mg/dL, 90.2 mg/dL and 90.22 mg/dL, respectively.
Regarding `Cc1ccccc1NS(=O)(=O)c1cc2c(c([N+](=O)[O-])c1)Nc1ccccc1O2`, the Activity stood at 100.44 mg/dL in the assay with Rattus norvegicus [3]; 73.33 mg/dL in the assay on Rattus norvegicus [4]; 87.93 mg/dL with Rattus norvegicus [5]; 100 mg/dL in the assay with Rattus norvegicus [6]; 97.32 mg/dL with Rattus norvegicus [7]; 123.21 mg/dL in the assay with Rattus norvegicus [8]. Besides, the Activity in the assay on Rattus norvegicus [9] turned out to be 52.43 mg/dL.
Regarding `CC(C)N(C(C)C)S(=O)(=O)c1cc2c(c([N+](=O)[O-])c1)Nc1ccccc1O2`, the Activity in the assay with Rattus norvegicus [4] came to 63.05 mg/dL; with Rattus norvegicus [5], 69.44 mg/dL; with Rattus norvegicus [9], 67.5 mg/dL.
`CC(NS(=O)(=O)c1cc2c(c([N+](=O)[O-])c1)Nc1ccccc1O2)c1ccccc1` (stereo not given): the Activity in the assay on Rattus norvegicus [4] is 77.74 mg/dL; with Rattus norvegicus [5] it was 94.28 mg/dL; with Rattus norvegicus [9], 78.26 mg/dL.
Take `NS(=O)(=O)c1cc2c(c([N+](=O)[O-])c1)Nc1ccccc1O2`: the Activity is 112.31 mg/dL in the assay on Rattus norvegicus [3]; 69.79 mg/dL with Rattus norvegicus [4]; 51.04 mg/dL with Rattus norvegicus [5]; 122.85 mg/dL in the assay with Rattus norvegicus [6]; 105.72 mg/dL in the assay with Rattus norvegicus [7]; 124.2 mg/dL in the assay on Rattus norvegicus [8]. For the same compound, the Activity in the assay on Rattus norvegicus [9] amounted to 65.62 mg/dL.
In the case of `CC(C)c1ccc(NS(=O)(=O)c2cc3c(c([N+](=O)[O-])c2)Nc2ccccc2O3)cc1`, the Activity in the assay on Rattus norvegicus [3] came to 96.66 mg/dL; with Rattus norvegicus [4], 86.45 mg/dL; in the assay on Rattus norvegicus [5], 91.74 mg/dL; in the assay with Rattus norvegicus [6] it was 106 mg/dL; with Rattus norvegicus [7], 98 mg/dL; in the assay with Rattus norvegicus [8], 124.33 mg/dL. The Activity in the assay with Rattus norvegicus [9] was 74.28 mg/dL.
With `CN(CCOc1ccc(CC2SC(=O)NC2=O)cc1)c1ccccn1` (stereo not given) [ROSIGLITAZONE], the results for the IC50 with Hepatocyte [13] and in the assay on Hepatocyte [14] were 165 µM and 225 µM, respectively.
On to `O=[N+]([O-])c1cc(S(=O)(=O)N2CCCCC2)cc2c1Nc1ccccc1O2`, for which the results for the Activity in the assay on Rattus norvegicus [4], in the assay with Rattus norvegicus [5] and in the assay on Rattus norvegicus [9] were 69.35 mg/dL, 78.41 mg/dL and 72.67 mg/dL, respectively.
Taken in the same sequence, the figures for `O=[N+]([O-])c1cc(S(=O)(=O)Nc2ccccc2)cc2c1Nc1ccccc1O2` were 100 mg/dL, 118.22 mg/dL and 102.6 mg/dL.
In the case of `O=[N+]([O-])c1cc(S(=O)(=O)Nc2ccc(Cl)cc2)cc2c1Nc1ccccc1O2`, the Activity is 106.23 mg/dL in the assay with Rattus norvegicus [3]; 91.66 mg/dL in the assay on Rattus norvegicus [4]; 60.93 mg/dL in the assay with Rattus norvegicus [5]; 76.9 mg/dL with Rattus norvegicus [6]; 93.77 mg/dL with Rattus norvegicus [7]; 100.36 mg/dL in the assay on Rattus norvegicus [8]. For the same compound, the Activity in the assay with Rattus norvegicus [9] turned out to be 106.25 mg/dL.
Regarding `CCCNS(=O)(=O)c1cc2c(c([N+](=O)[O-])c1)Nc1ccccc1O2`, the results for the Activity with Rattus norvegicus [4], with Rattus norvegicus [5] and in the assay on Rattus norvegicus [9] were 88.7 mg/dL, 98.7 mg/dL and 75.48 mg/dL, respectively.
For `O=[N+]([O-])c1cc(S(=O)(=O)N2CCOCC2)cc2c1Nc1ccccc1O2` the same measures were 61.56 mg/dL, 65.27 mg/dL and 59.35 mg/dL.
For the compound `O=[N+]([O-])c1cc(S(=O)(=O)NCc2ccco2)cc2c1Nc1ccccc1O2`, the Activity with Rattus norvegicus [3] came to 81.89 mg/dL; in the assay on Rattus norvegicus [4], 86.36 mg/dL; with Rattus norvegicus [5], 100.76 mg/dL; in the assay with Rattus norvegicus [6], 83.89 mg/dL; in the assay with Rattus norvegicus [7], 80 mg/dL; in the assay on Rattus norvegicus [8] it was 115.43 mg/dL. Moreover, in the assay with Rattus norvegicus [9], the Activity amounted to 96.21 mg/dL.
With `Cc1ccc(NS(=O)(=O)c2cc3c(c([N+](=O)[O-])c2)Nc2ccccc2O3)c(C)c1`, the Activity with Rattus norvegicus [4] came to 89.88 mg/dL; with Rattus norvegicus [5], 85.42 mg/dL; in the assay with Rattus norvegicus [9] it was 93.55 mg/dL.
`COc1ccc(NS(=O)(=O)c2cc3c(c([N+](=O)[O-])c2)Nc2ccccc2O3)cc1`: the Activity with Rattus norvegicus [3] is 96.07 mg/dL; with Rattus norvegicus [4] it was 120.31 mg/dL; with Rattus norvegicus [5] it was 74.47 mg/dL; with Rattus norvegicus [6], 107.14 mg/dL; with Rattus norvegicus [7], 91.42 mg/dL; with Rattus norvegicus [8], 130.35 mg/dL. Besides, the Activity in the assay on Rattus norvegicus [9] turned out to be 116.66 mg/dL.

For orientation: IC50 means the concentration at which inhibition is half-maximal. A high value points to weaker potency in that assay.
